From patent US20230084515A1, “THERAPEUTIC METHODS AND COMPOSITIONS FOR TREATING CANCER USING BRAF AND/OR MEK INHIBITOR COMBINATION THERAPY” (Vanderbilt University, priority 2020, published 2023)

How the values were obtained:
SC10 = experiment: Proliferation assay (population growth curves, DIP rates) in SKMEL5 subline SC10; type: cell-based, human; conditions: for effect of combination with BRAFi on proliferation (DIP rates): combination with PLX4720 8 μM
Protocol: The cells are labeled lentivirally with a fluorescent, nuclear tag (Histone 2B monomeric Red Fluorescent Protein, H2BmRFP from AddGene), flow sorted for H2BmRFP positivity (top 10-15% brightest), and fluorescently counted under drug treatments. Cells are seeded into 96 well plates (1-5,000 cells per well) and drug treatments applied the following day, including DMSO or PBS control (all concentrations contained equal percentage of DMSO or PBS solvent). Images are taken every 8-12 hours with sufficient image alignment (montaging) in order to capture about 25-100 cells per well/treatment (over the course of the experiment, cell counts typically exceed 1,000 in DMSO or low drug concentration wells). Direct measurements of cell counts are made using Cellavista software and Image J macros. The images are filtered through these computer programs to track and label each cell, quantifying the number of cells in each time-stamped frame. Proliferation is platted as log2 normalized growth, using the initial cell count from the first image frame for normalization. Dose-response curves are generated using a 2-fold dilution of single drugs at various concentrations ranked highest to zero (zero containing only the solvent the drug was dissolved in, being either DMSO or H2O); all concentrations contained equal volumes of the solvent used. For combinations with PLX4720 (BRAF inhibitor), 8 μM PLX4720 was used as diluent, and serially diluted with the second drug from highest concentration to lowest. The drug-induced proliferation (DIP) rates (see, Harris, L. A., et al. “An unbiased metric of antiproliferative drug effect in vitro,” Nature Methods', 2016, vol. 13, p. 497-500.) are calculated using the slope of the log2-normalized population curves after 24 hrs. BRAF-mutated melanoma cells (SKMEL5, A375, WM793, SKMEL19, SKMEL28, WM164, WM88, A2058) were grown and cultured in Dulbecco's modified Eagle's medium and Ham's F-12 medium (DMEM:F12, 1:1. Cat #11330-032). Media were obtained from Gibco (Grand Island, N.Y.) and supplemented with 10% FBS, All cells were cultured in CO2, temperature-controlled (37° C.), and humidified incubators. Cells were tested for mycoplasma before use and confirmed negative. Cells were passaged 1-2× per week and maintained as exponentially growing cultures for a maximum of less than 2.0 passages. Unless otherwise indicated, cells were seeded 16-24 h prior to treatment to allow cells to adhere to culture plates. Reagents/drugs were prepared in complete medium immediately prior to adding to cells by replacement. PLX4720 (Cat #S1152) and vemurafenib (Cat #S1267) were obtained from Selleckchem (Houston, Tex.) solubilized in dimethyl sulfoxide (DMSO) at a stock concentration of 10 mM. […]

A2058 cells = experiment: Proliferation assay (population growth curves, DIP rates) in A2058 cells; type: cell-based, human
Protocol: The cells are labeled lentivirally with a fluorescent, nuclear tag (Histone 2B monomeric Red Fluorescent Protein, H2BmRFP from AddGene), flow sorted for H2BmRFP positivity (top 10-15% brightest), and fluorescently counted under drug treatments. Cells are seeded into 96 well plates (1-5,000 cells per well) and drug treatments applied the following day, including DMSO or PBS control (all concentrations contained equal percentage of DMSO or PBS solvent). Images are taken every 8-12 hours with sufficient image alignment (montaging) in order to capture about 25-100 cells per well/treatment (over the course of the experiment, cell counts typically exceed 1,000 in DMSO or low drug concentration wells). Direct measurements of cell counts are made using Cellavista software and Image J macros. The images are filtered through these computer programs to track and label each cell, quantifying the number of cells in each time-stamped frame. Proliferation is platted as log2 normalized growth, using the initial cell count from the first image frame for normalization. […] The drug-induced proliferation (DIP) rates (see, Harris, L. A., et al. “An unbiased metric of antiproliferative drug effect in vitro,” Nature Methods', 2016, vol. 13, p. 497-500.) are calculated using the slope of the log2-normalized population curves after 24 hrs. […]

COc1cc(C(C)=O)ccc1O [Apocynin]
effect of combination with BRAFi on proliferation (DIP rates) (SC10): synergism

c1ccc2c(c1)[I+]c1ccccc1-2 [DPI, Diphenyleneiodonium chloride]
effect of combination with BRAFi on proliferation (DIP rates) (SC10): synergism | effect of combination with BRAFi on proliferation (DIP rates) (A2058 cells; DPI 250 nM, BRAFi 8 μM, FIG. 6A): enhancement of NOX-inhibition on the anti-proliferative effects of BRAF-inhibition

CN(C)c1cccc(-c2c3c(=O)n(-c4ccccc4Cl)[nH]c3cc(=O)n2C)c1 [GKT137831]
effect of combination with BRAFi on proliferation (DIP rates) (SC10): synergism

CCCS(=O)(=O)Nc1ccc(F)c(C(=O)c2c[nH]c3ncc(Cl)cc23)c1F [PLX4720]
DIP rates under BRAF-inhibition (SC10): positive DIP rates | DIP rates under BRAF-inhibition (A2058 cells): positive DIP rates
